This is an account of results in patent publication US11691984B2, “Compounds and methods for DCAF-mediated protein degradation” (The Scripps Research Institute, priority 2018, dated 2023).

Structures are written as SMILES. Residues, ends and D or L forms follow the SMILES beside them. *: point of attachment. Cbz = O=C(OCc1ccccc1)*

Data set [1] has as its target T1, HA-DCAF16 and FLAG-FKBP12_NLS (Homo sapiens, UniProt P62942+Q9NXF7).
T1 construct: expressed in transfected cells; host or cells: HEK293T stably expressing FLAG-FKBP12_NLS, transiently transfected with HA-DCAF16 (pRK5)
The data set is described as follows: Co-immunoprecipitation of HA-DCAF16 with FLAG-FKBP12_NLS (ternary complex) in HEK293T cells. Type of data set: cell-based. The conditions noted are these: 5 μM, MG132 10 μM, 2 hours. As for the experimental part: (§1) Cells were collected and lysed in 1% NP-40 lysis buffer (25 mM Tris-HCl pH 7.4, 150 mM NaCl, 10% glycerol, 1% Nonidet P-40) with complete protease inhibitor cocktail (Roche). Cells were vortexed and sonicated for 5 pulses (40%, 4). The supernatant was collected after centrifugation at 16,000 g for 10 min at 4° C. Protein concentration was determined by DC assay (Bio-Rad). Protein lysate was heated at 95° C. for 5 min in 1× Laemmli sample buffer. Proteins were resolved by 12% or 14% Novex Tris-Glycine Mini Gels (Invitrogen) and transferred to polyvinylidene fluoride (PVDF) membrane (0.2 Bio-Rad). The membrane was blocked with 5% BSA in TBST buffer (0.1% Tween 20, 20 mM Tris-HCl 7.6, 150 mM NaCl) at room temperature for 1 h. The antibody was diluted with fresh 5% BSA in TBST buffer (1:10000 dilution for FLAG, HA and β-Actin, 1:1000 dilution for others) and incubated with membrane (1 h room temperature for FLAG, HA and β-Actin, overnight 4° C. for others). Membrane was washed three times with TBST buffer and incubated with secondary antibody (1:5000 dilution in 5% BSA in TBST) at room temperature for 1 h. Membrane was washed three times with TBST buffer. The chemiluminescence signal in membrane was recorded after developing in ECL or ECL plus western blotting detection reagent using CL-XPosure film (Thermo Scientific). Relative band intensities were quantified using ImageJ.
Cells were collected and lysed in 1% NP-40 lysis buffer with complete protease inhibitor cocktail on ice for 10 min, followed by 5 pulses of sonication (40%, 4). After centrifugation at 16,000 g for 10 min at 4° C., the supernatant was collected. FLAG affinity gel (20 μL slurry per sample) was incubated with protein lysates at 4° C. for 1 h and washed four times with IP washing buffer. The affinity gel was heated at 95° C. for 10 min in 2× Laemmli sample buffer, followed by western blot analysis.

Data set [2] deals with T2, FLAG-FKBP12_NLS (Homo sapiens, UniProt P62942). The data set is described as follows: Anti-FLAG western blot of stably expressed nuclear FKBP12 (FLAG-FKBP12_NLS) in HEK293T cells. Further details: expressed in transfected cells; host or cells: HEK293T, MDA-MB-231 and HEK293 DCAF16+/+ and DCAF16-/- clones (lentiviral pCDH-CMV-MCS-EF1-Puro). In kind it is cell-based. The following applies: for nuclear FKBP12 (FKBP12_NLS) protein level: 2 μM, 8 or 24 h; for effect of inhibitor on KB02-SLF-mediated loss of FKBP12_NLS: KB02-SLF 1 μM with MG132 10 μM or MLN4924 1 μM.
From the text: (§2) FLAG-tagged variants of FKBP12 (FLAG-FKBP12) or (2) FKBP12 with a C-terminal nuclear localization sequence (FLAG-FKBP12_NLS) were then stably expressed in HEK293T cells to provide cell models for evaluating cytosolic- and nuclear-localized E3-mediated degradation pathways, respectively.
(§3) FLAG-FKBP12 or FLAG-FKBP12_NLS lentivirus was generated by co-transfection of FLAG-FKBP12 or FLAG-FKBP12_NLS, pCMV-dR8.2 and pMD2.G into HEK 293T cells using FuGene 6 transfection reagent (Promega). Virus-containing medium were collected 48 h after transfection, filtered with […] filter, and used to transduce HEK293T and MDA-MB-231 cells in the presence of 10 μg/mL polybrene (Santa Cruz). 72 h after transduction, puromycin (2 μg/mL) was added to cells. HEK293T cells stably expressing FLAG-FKBP12 or FLAG-FKBP12_NLS were obtained after puromycin selection for 7 days. HEK293T cells stably expressing pCDH empty vector were generated in parallel as control.
shRNA lentivirus was generated by co-transfection of shRNA-containing vector, pCMV-dR8.2 and pMD2.G into HEK 293T cells using FuGene 6 transfection reagent (Promega). Virus-containing medium were collected 48 h after transfection and used to transiently transduce HEK293T cells stably expressing FLAG-FKBP12_NLS for 48 h. Lentiviral shRNAs targeting human DCAF16 or DTL were in pLKO.1 vector and purchased from Sigma. The sequences of shRNAs is described below.
as §1
(In western blotting, separated proteins are transferred to a membrane and probed.)

A further data set has as its system HEK293T cells. As to the kind of experiment: Cell viability assay (Cell Titer Glo). Type of data set: cell-based, human. The conditions noted are these: 24 hours, read-out: cytotoxicity IC50. Here is the method:
HEK293T cells were seeded in 96-well clear bottom white plate (Corning) at 3×10^4 cells per well in 100 μL of DMEM medium and grown for 24 h. The cells were treated with 0.625, 1.25, 2.5, 5, 10, 20 and 40 μM of KB02-SLF or KB02-JQ1 (DMSO stock, final DMEM concentration is 0.1% (v/v)) in 100 μL of DMEM medium for 24 h. 50 μL of Cell Titer Glo reagent (Promega) was added to each well and incubate for 10 min at room temperature. The luminescence was read on CLARIOstar (BMG LAB TECH).
Background: Cellular ATP, detected with luciferase, serves as a proxy for viable cell number.

Data set [3] addresses T2, FLAG-FKBP12_NLS. The data set is described as follows: Western blot of stably expressed FLAG-FKBP12_NLS in MDA-MB-231 cells. In kind it is cell-based. The arrangement: expressed in transfected cells; host or cells: HEK293T, MDA-MB-231 and HEK293 DCAF16+/+ and DCAF16-/- clones (lentiviral pCDH-CMV-MCS-EF1-Puro). The conditions noted are these: 8 hours; for effect of inhibitor on degradation of FLAG-FKBP12_NLS in MDA-MB-231 cells: KB02-PEG0-SLF, KB02-SLF or KB02-PEG4-SLF 1 μM. Here is the method:
as §3, §1

The target in the next data set is T3, BRD4 (Homo sapiens, UniProt O60885).
T3 construct: degradation of endogenous BRD4 in HEK293T cells; endogenous in cells; host or cells: HEK293T (A10, A16); HEK293 DCAF16+/+ and DCAF16-/- clones (A11)
As to the kind of experiment: Western blot of endogenous BRD4 in HEK293T cells. Type of data set: cell-based. The conditions noted are these: 20 μM KB02-JQ1; 10 μM MG132 or 1 μM MLN4924. Here is the method: as §1

The next data set deals with T4, FLAG-FKBP12 (Homo sapiens, UniProt P62942).
T4 construct: expressed in transfected cells; host or cells: HEK293T (lentiviral transduction, puromycin selection)
As to the kind of experiment: Anti-FLAG western blot of stably expressed cytosolic FKBP12 (FLAG-FKBP12) in HEK293T cells. The conditions noted are these: lenalidomide-SLF positive control, 4 or 24 h. Type of data set: cell-based.
From the text: as §2
FLAG-FKBP12 or FLAG-FKBP12_NLS lentivirus was generated by co-transfection of FLAG-FKBP12 or FLAG-FKBP12_NLS, pCMV-dR8.2 and pMD2.G into HEK 293T cells using FuGene 6 transfection reagent (Promega). Virus-containing medium were collected 48 h after transfection, filtered with […] filter, and used to transduce HEK293T and MDA-MB-231 cells in the presence of 10 μg/mL polybrene (Santa Cruz). 72 h after transduction, puromycin (2 μg/mL) was added to cells. HEK293T cells stably expressing FLAG-FKBP12 or FLAG-FKBP12_NLS were obtained after puromycin selection for 7 days. […]
Cells were collected and lysed in 1% NP-40 lysis buffer (25 mM Tris-HCl pH 7.4, 150 mM NaCl, 10% glycerol, 1% Nonidet P-40) with complete protease inhibitor cocktail (Roche). […] Protein concentration was determined by DC assay (Bio-Rad). […] The chemiluminescence signal in membrane was recorded after developing in ECL or ECL plus western blotting detection reagent using CL-XPosure film (Thermo Scientific). Relative band intensities were quantified using ImageJ.

T2 sequence (P62942 whole entry): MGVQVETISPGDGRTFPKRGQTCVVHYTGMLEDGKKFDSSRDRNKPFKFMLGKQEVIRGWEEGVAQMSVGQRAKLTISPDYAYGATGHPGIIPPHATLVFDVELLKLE
T1 sequence (Q9NXF7 whole entry): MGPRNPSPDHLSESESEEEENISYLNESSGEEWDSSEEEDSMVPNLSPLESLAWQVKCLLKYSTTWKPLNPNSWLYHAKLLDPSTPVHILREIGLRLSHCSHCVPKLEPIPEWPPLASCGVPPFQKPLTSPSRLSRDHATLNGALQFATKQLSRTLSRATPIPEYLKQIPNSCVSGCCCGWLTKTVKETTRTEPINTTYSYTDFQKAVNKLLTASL
T1 sequence (P62942 2-108): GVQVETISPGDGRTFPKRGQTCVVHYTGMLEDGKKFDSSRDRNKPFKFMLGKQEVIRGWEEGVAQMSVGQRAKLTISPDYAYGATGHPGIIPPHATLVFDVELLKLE
T1 sequence (Q16531 whole entry partner): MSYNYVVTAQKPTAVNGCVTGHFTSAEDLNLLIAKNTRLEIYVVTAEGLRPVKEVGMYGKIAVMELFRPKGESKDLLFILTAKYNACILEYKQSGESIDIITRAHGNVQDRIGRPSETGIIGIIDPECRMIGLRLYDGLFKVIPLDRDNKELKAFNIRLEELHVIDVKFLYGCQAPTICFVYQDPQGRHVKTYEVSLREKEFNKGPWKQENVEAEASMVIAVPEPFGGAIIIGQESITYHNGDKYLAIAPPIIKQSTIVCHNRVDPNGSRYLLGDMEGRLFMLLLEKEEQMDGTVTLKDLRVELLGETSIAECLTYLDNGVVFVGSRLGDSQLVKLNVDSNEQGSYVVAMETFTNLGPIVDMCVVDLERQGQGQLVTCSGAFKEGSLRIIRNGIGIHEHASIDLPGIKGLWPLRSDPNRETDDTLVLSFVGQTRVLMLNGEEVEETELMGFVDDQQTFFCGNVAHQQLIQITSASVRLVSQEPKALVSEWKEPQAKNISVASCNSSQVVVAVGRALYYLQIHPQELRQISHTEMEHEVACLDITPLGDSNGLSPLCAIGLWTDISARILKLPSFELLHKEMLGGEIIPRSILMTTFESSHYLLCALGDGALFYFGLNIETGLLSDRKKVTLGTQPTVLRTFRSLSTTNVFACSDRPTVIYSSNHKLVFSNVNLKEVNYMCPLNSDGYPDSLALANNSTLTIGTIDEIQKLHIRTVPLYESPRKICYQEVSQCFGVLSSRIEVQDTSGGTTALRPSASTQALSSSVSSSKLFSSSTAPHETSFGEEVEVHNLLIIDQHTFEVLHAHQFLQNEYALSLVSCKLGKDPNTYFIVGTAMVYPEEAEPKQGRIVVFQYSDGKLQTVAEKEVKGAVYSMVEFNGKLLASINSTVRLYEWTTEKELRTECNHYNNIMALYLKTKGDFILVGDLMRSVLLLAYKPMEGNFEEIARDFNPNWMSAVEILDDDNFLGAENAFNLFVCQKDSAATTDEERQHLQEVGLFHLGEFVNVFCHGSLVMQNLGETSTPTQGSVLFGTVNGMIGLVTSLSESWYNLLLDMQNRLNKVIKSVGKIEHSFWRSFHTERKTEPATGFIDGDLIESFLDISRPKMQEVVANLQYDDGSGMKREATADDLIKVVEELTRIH
T4 sequence (P62942 whole entry): as the sequence (P62942 whole entry) above

Consider `CCC(=O)N1CCCc2cc(OCC(=O)NCCOCCOCCC(=O)Nc3cccc([C@@H](CCc4ccc(OC)c(OC)c4)OC(=O)[C@@H]4CCCCN4C(=O)C(=O)C(C)(C)CC)c3)ccc21` [C-KB02-SLF, (R)-3-(3,4-dimethoxyphenyl)-1-(3-(3-(2-(2-(2-((1-propionyl-1,2,3,4-tetrahydroquinolin-6-yl)oxy)acetamido)ethoxy)ethoxy)propanamido)phenyl)propyl (S)-1-(3,3-dimethyl-2-oxopentanoyl)piperidine-2-carboxylate], for which the “co-immunoprecipitation of HA-DCAF16 with FLAG-FKBP12_NLS” value (“co-immunoprecipitation of HA-DCAF16” below) in data set [1] is listed as “DCAF16 was not co-immunoprecipitated”. Besides, the “nuclear FKBP12 (FKBP12_NLS) protein level” value at FLAG-FKBP12_NLS [2] (HEK293T) is “Reductions in FKBP12_NLS were not observed”.
On to `COc1ccc2c(c1)CCCN2C(=O)CCl` [KB02, reference compound], for which the IC50 – broadly, the midpoint of a concentration-inhibition curve – with HEK293T cells was 23 ± 1.2 µM. The “FKBP12_NLS level in cells treated with the separate components of KB02-SLF” value at FLAG-FKBP12_NLS [2] (HEK293T, 1.5 μM, 8 h) is reported as “FKBP12_NLS was not reduced”.
With `CCC(C)(C)C(=O)C(=O)N1CCCC[C@H]1C(=O)O[C@H](CCc1ccc(OC)c(OC)c1)c1cccc(NC(=O)CCOCCOCCOCCOCCNC(=O)COc2ccc3c(c2)CCCN3C(=O)CCl)c1` [KB02-PEG4-SLF, (R)-1-(3-(1-((1-(2-chloroacetyl)-1,2,3,4-tetrahydroquinolin-6-yl)oxy)-2-oxo-6,9,12,15-tetraoxa-3-azaoctadecan-18-amido)phenyl)-3-(3,4-dimethoxyphenyl)propyl (S)-1-(3,3-dimethyl-2-oxopentanoyl)piperidine-2-carboxylate], in data set [1], the “co-immunoprecipitation of HA-DCAF16” value is reported as “co-immunoprecipitated with HA-DCAF16”. The “degradation of FLAG-FKBP12_NLS in MDA-MB-231 cells” value on FLAG-FKBP12_NLS [3] (1 μM) was “degradation of stably expressed FLAG-FKBP12_NLS”.
As to `CCC(C)(C)C(=O)C(=O)N1CCCC[C@H]1C(=O)O[C@H](CCc1ccc(OC)c(OC)c1)c1cccc(NC(=O)CCOCCOCCNC(=O)CCNC(=O)c2cc(NC(=O)CCl)cc(C(F)(F)F)c2)c1` [KB03-SLF, (R)-1-(3-(1-(3-(2-chloroacetamido)-5-(trifluoromethyl)phenyl)-1,5-dioxo-9,12-dioxa-2,6-diazapentadecan-15-amido)phenyl)-3-(3,4-dimethoxyphenyl)propyl (S)-1-(3,3-dimethyl-2-oxopentanoyl)piperidine-2-carboxylate], the “co-immunoprecipitation of HA-DCAF16” value in data set [1] is “DCAF16 was not co-immunoprecipitated”. The “nuclear FKBP12 (FKBP12_NLS) protein level” value on FLAG-FKBP12_NLS [2] (HEK293T) is recorded as “did not support FKBP12_NLS degradation”.
The like results for `C=CC(=O)N(c1ccc(Br)cc1)c1ccc(C(=O)NCCOCCOCCOCCC(=O)Nc2cccc([C@@H](CCc3ccc(OC)c(OC)c3)OC(=O)[C@@H]3CCCCN3C(=O)C(=O)C(C)(C)CC)c2)cc1` [KB05-SLF, (R)-1-(3-(1-(4-(N-(4-bromophenyl)acrylamido)phenyl)-1-oxo-5,8,11-trioxa-2-azatetradecan-14-amido)phenyl)-3-(3,4-dimethoxyphenyl)propyl (S)-1-(3,3-dimethyl-2-oxopentanoyl)piperidine-2-carboxylate] were, in that order, “DCAF16 was not co-immunoprecipitated” and “did not support FKBP12_NLS degradation”.
On to `CC(C)C[C@@H](C=O)NC(=O)[C@H](CC(C)C)NC(=O)[C@H](CC(C)C)NC(=O)OCc1ccccc1` [MG132, reference compound] (Cbz-Leu-Leu-Leu-aldehyde), for which the “effect of inhibitor on KB02-JQ1-mediated BRD4 degradation” value at BRD4 is on record as “blocked”. Further, at FLAG-FKBP12_NLS [2] (8 h), the “effect of inhibitor on KB02-SLF-mediated loss of FKBP12_NLS” value is recorded as “blocked”. Further, on FLAG-FKBP12_NLS [3], the “effect of inhibitor on degradation of FLAG-FKBP12_NLS in MDA-MB-231 cells” value was “blocked”.
With `NS(=O)(=O)OC[C@@H]1C[C@@H](n2ccc3c(N[C@H]4CCc5ccccc54)ncnc32)C[C@@H]1O` [MLN4924, reference compound], on BRD4, the “effect of inhibitor on KB02-JQ1-mediated BRD4 degradation” value was “blocked”. Besides, at FLAG-FKBP12_NLS [2] (8 h), the “effect of inhibitor on KB02-SLF-mediated loss of FKBP12_NLS” value is given as “blocked”. Further, on FLAG-FKBP12_NLS [3], the “effect of inhibitor on degradation of FLAG-FKBP12_NLS in MDA-MB-231 cells” value is “blocked”.
Turning to `CCC(C)(C)C(=O)C(=O)N1CCCC[C@H]1C(=O)O[C@H](CCc1ccc(OC)c(OC)c1)c1cccc(NC(=O)CCCC(=O)NCCCCC(=O)Nc2cccc3c2CN(C2CCC(=O)NC2=O)C3=O)c1` (stereo partly drawn) [lenalidomide-SLF, (1R)-3-(3,4-dimethoxyphenyl)-1-(3-(5-((5-((2-(2,6-dioxopiperidin-3-yl)-1-oxoisoindolin-4-yl)amino)-5-oxopentyl)amino)-5-oxopentanamido)phenyl)propyl (2S)-1-(3,3-dimethyl-2-oxopentanoyl)piperidine-2-carboxylate, reference compound], the “cytosolic FKBP12 degradation” value on FLAG-FKBP12 was “degraded”. Further, the “nuclear FKBP12 degradation” value at FLAG-FKBP12_NLS [2] (HEK293T, lenalidomide-SLF positive control, 4 or 24 h) is “degraded”.
